The text below walks through data of US12448389B2, “BRM targeting compounds and associated methods of use” (Prelude Therapeutics Incorporated, priority 2020, dated 2025).

Test [1] concerns the target T1, SMARCA2-HiBiT (Homo sapiens, UniProt P51531).
T1 construct: SMARCA2-HiBiT knock-in Hela monoclonal cell (CS302366); host or cells: HeLa monoclonal knock-in line (CRISPR HiBiT knock-in at the endogenous locus, heterozygous)
The experiment in a line: SMARCA2 HiBiT degradation assay in HeLa cells. Type of test: cell-based. Conditions: 18 hours incubation; for DC50: read-out: HeLa_HiBit-SM2 DC50; for Dmax: HeLa, read-out: HeLa-HiBit-SM2 Dmax (%). Summed up:
(§1)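 HeLa monoclonal lines with heterozygous HiBiT knock-in were seeded at 2500 cells/well in EMEM with 10% FBS and treated with compound for 18 h at 37 °C. Remaining tagged protein was measured by Nano-Glo HiBiT lytic luminescence after 30–60 min at RT, and values came from curve fitting.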
On the technique in general: With HiBiT, luminescence reflects the tagged protein that the partner subunit can reach.

Test [2] deals with T2, SMARCA4-HiBiT (Homo sapiens, UniProt P51532).
T2 construct: SMARCA4-HiBiT knock-in Hela monoclonal cell (CS3023226); host or cells: HeLa monoclonal knock-in line (CRISPR HiBiT knock-in at the endogenous locus, heterozygous)
T2 sequence (P51532 whole entry): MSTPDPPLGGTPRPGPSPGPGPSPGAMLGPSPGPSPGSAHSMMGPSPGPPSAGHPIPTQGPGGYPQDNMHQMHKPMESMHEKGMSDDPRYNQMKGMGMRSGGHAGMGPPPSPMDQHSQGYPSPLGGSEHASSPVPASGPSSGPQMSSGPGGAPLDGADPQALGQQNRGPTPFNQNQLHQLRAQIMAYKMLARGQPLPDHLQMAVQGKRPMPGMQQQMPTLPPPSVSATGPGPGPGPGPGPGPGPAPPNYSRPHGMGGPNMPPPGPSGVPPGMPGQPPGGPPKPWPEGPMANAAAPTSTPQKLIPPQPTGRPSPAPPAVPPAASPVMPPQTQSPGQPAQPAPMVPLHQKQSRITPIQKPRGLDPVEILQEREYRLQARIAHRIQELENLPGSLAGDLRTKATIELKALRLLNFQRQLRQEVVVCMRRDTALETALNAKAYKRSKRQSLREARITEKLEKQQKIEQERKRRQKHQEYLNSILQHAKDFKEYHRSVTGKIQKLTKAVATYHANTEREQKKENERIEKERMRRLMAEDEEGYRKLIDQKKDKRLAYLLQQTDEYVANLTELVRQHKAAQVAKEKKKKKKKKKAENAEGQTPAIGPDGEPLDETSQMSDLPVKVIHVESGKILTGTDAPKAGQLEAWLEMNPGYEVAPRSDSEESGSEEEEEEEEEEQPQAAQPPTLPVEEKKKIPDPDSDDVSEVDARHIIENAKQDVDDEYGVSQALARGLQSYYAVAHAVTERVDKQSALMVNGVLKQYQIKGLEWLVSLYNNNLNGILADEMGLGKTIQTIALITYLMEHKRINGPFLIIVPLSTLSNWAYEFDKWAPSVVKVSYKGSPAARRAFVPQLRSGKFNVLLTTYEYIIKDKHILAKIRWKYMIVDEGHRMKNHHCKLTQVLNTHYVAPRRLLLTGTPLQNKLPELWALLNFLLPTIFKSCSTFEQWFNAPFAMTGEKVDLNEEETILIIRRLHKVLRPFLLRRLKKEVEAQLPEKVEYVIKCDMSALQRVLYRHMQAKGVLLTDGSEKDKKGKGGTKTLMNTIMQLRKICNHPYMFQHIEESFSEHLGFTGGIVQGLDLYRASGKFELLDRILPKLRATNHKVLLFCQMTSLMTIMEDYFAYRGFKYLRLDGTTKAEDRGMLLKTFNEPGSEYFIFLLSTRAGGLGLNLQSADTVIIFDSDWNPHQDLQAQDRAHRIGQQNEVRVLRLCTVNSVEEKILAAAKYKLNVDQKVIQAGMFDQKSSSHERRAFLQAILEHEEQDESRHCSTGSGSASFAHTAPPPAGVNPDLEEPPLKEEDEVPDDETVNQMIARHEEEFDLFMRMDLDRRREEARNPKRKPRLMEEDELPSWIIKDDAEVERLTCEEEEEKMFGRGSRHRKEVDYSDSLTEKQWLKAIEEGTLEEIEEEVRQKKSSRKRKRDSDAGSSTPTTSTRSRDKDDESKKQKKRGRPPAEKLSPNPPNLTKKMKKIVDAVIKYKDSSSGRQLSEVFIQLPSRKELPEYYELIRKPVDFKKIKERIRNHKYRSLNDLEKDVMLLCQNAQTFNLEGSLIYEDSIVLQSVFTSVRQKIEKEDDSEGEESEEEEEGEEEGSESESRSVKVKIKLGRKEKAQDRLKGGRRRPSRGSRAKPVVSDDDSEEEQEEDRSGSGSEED
The experiment in a line: SMARCA4 HiBiT degradation assay in HeLa cells. In kind it is cell-based. Particulars: 18 hours incubation; for DC50: read-out: HeLa-HiBit-SM4 DC50; for Dmax: HeLa, read-out: HeLa-HiBit-SM4 Dmax (%). Summed up:
as §1

SMILES strings stand for the structures.

T1 sequence (P51531 whole entry): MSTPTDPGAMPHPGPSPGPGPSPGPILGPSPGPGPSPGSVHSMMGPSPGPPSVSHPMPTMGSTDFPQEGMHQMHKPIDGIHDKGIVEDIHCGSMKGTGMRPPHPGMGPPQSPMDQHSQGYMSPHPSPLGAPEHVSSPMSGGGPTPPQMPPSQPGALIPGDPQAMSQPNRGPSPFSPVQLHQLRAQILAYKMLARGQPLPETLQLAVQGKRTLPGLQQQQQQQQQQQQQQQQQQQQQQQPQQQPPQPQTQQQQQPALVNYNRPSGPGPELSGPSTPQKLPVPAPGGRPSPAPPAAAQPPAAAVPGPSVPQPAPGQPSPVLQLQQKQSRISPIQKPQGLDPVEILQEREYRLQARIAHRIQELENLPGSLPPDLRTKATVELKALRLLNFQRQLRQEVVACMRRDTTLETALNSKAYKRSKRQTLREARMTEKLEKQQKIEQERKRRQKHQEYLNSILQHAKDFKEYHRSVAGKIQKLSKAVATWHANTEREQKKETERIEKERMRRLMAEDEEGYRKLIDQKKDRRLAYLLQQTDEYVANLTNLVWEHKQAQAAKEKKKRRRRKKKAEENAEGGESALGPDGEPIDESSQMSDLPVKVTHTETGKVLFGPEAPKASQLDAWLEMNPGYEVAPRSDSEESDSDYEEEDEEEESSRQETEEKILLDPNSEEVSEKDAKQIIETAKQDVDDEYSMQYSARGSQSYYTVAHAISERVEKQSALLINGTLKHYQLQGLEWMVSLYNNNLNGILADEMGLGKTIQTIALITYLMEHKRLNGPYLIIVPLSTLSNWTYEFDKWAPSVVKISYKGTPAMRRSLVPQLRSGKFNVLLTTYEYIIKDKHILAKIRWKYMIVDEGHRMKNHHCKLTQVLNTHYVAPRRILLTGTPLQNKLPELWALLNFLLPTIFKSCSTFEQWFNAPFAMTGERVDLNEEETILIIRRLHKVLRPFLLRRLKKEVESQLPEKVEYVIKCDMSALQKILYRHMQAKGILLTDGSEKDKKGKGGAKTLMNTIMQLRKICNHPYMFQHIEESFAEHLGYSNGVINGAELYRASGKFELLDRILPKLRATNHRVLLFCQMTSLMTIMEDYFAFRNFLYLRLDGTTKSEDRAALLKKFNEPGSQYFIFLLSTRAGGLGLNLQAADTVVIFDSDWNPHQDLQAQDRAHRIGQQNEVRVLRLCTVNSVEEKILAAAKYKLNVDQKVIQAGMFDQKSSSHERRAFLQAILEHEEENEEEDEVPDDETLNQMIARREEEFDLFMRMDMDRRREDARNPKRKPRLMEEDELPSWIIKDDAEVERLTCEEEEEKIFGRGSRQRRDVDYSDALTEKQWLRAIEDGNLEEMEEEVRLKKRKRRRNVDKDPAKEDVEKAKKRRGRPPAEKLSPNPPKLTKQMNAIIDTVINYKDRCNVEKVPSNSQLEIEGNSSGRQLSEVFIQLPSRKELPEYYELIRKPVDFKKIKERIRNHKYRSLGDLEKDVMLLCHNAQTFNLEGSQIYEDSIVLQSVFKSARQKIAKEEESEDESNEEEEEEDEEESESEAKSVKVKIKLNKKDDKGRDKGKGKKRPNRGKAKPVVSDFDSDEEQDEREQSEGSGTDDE

In general, DC50 refers to the concentration giving 50% degradation. As usually defined, the Dmax is the largest share of the target that was removed. As to `O=C1CCC(N2Cc3ccc(N4CC[C@H](CN5CCC(C(=O)N6CCN7c8cc(-c9ccccc9O)nnc8NC[C@H]7C6)CC5)[C@@H](F)C4)cc3C2=O)C(=O)N1` (stereo partly drawn) [Example 261, 3-(6-((3R,4R)-3-fluoro-4-((4-((S)-2-(2-hydroxyphenyl)-6,6a,7,8,9,10-hexahydro-5H-pyrazino[1′,2′:4,5]pyrazino[2,3-c]pyridazine-8-carbonyl)piperidin-1-yl)methyl)piperidin-1-yl)-1-oxoisoindolin-2-yl)piperidine-2,6-dione], the DC50 is < 10 nM in test [1] and 10 to 100 nM in test [2]. The Dmax was > 85% in test [1] and 75 to 85% in test [2].

On to `O=C1CCC(N2Cc3ccc(N4CCC(CN5CCN(C(=O)N6CCN7c8cc(-c9ccccc9O)nnc8NC[C@H]7C6)C6(CC6)C5)CC4)cc3C2=O)C(=O)N1` (stereo partly drawn) [Example 262, 3-(6-(4-((4-((S)-2-(2-hydroxyphenyl)-6,6a,7,8,9,10-hexahydro-5H-pyrazino[1′,2′:4,5]pyrazino[2,3-c]pyridazine-8-carbonyl)-4,7-diazaspiro[2.5]octan-7-yl)methyl)piperidin-1-yl)-1-oxoisoindolin-2-yl)piperidine-2,6-dione], for which, in test [1], the DC50 was < 10 nM and the Dmax is > 85%. In test [2], the DC50 is < 10 nM and the Dmax was > 85%.

As for `O=C1CCC(N2C(=O)c3cc(F)c(N4CCN(CC5CCN(C(=O)N6CCN7c8cc(-c9ccccc9O)nnc8NC[C@H]7C6)CC5)CC4)cc3C2=O)C(=O)N1` (stereo partly drawn) [Example 263, 2-(2,6-dioxopiperidin-3-yl)-5-fluoro-6-(4-((1-((S)-2-(2-hydroxyphenyl)-6,6a,7,8,9,10-hexahydro-5H-pyrazino[1′,2′:4,5]pyrazino[2,3-c]pyridazine-8-carbonyl)piperidin-4-yl)methyl)piperazin-1-yl)isoindoline-1,3-dione], the figures for the DC50 in test [1] and in test [2] were < 10 nM and 10 to 100 nM, respectively. The Dmax in test [1] and in test [2] was ≤ 50% in each case.

`CC1CN(CC2CCN(c3ccc4c(c3)C(=O)N(C3CCC(=O)NC3=O)C4)CC2)CCC1C(=O)N1CCN2c3cc(-c4ccccc4O)nnc3NC[C@H]2C1` (stereo partly drawn) [Example 264, 3-(6-(4-((4-((S)-2-(2-hydroxyphenyl)-6,6a,7,8,9,10-hexahydro-5H-pyrazino[1′,2′:4,5]pyrazino[2,3-c]pyridazine-8-carbonyl)-3-methylpiperidin-1-yl)methyl)piperidin-1-yl)-1-oxoisoindolin-2-yl)piperidine-2,6-dione]: in test [1], the DC50 is < 10 nM and the Dmax was > 85%. In test [2], the DC50 was < 10 nM and the Dmax was 75 to 85%.

For the molecule `CC1CC(C(=O)N2CCN3c4cc(-c5ccccc5O)nnc4NC[C@H]3C2)CCN1CC1CCN(c2ccc3c(c2)C(=O)N(C2CCC(=O)NC2=O)C3)CC1` (stereo partly drawn) [Example 265, 3-(6-(4-((4-((S)-2-(2-hydroxyphenyl)-6,6a,7,8,9,10-hexahydro-5H-pyrazino[1′,2′:4,5]pyrazino[2,3-c]pyridazine-8-carbonyl)-2-methylpiperidin-1-yl)methyl)piperidin-1-yl)-1-oxoisoindolin-2-yl)piperidine-2,6-dione], the DC50 in test [1] is < 10 nM; in test [2], 10 to 100 nM. Moreover, the Dmax in test [1] and in test [2] was 75 to 85% in each case.

With `CC1CN(CC2CCN(c3ccc4c(c3)C(=O)N(C3CCC(=O)NC3=O)C4)CC2)CC(C)N1C(=O)N1CCN2c3cc(-c4ccccc4O)nnc3NC[C@H]2C1` (stereo partly drawn) [Example 266, 3-(6-(4-((4-((S)-2-(2-hydroxyphenyl)-6,6a,7,8,9,10-hexahydro-5H-pyrazino[1′,2′:4,5]pyrazino[2,3-c]pyridazine-8-carbonyl)-3,5-dimethylpiperazin-1-yl)methyl)piperidin-1-yl)-1-oxoisoindolin-2-yl)piperidine-2,6-dione], in test [1], the DC50 is < 10 nM and the Dmax was > 85%. In test [2], the DC50 was < 10 nM and the Dmax is > 85%.

Consider `O=C1CCC(N2Cc3cc(N4CCO[C@@H](CN5C[C@@H]6[C@H](C5)[C@H]6CN5CCN6c7cc(-c8ccccc8O)nnc7NC[C@H]6C5)C4)ccc3C2=O)C(=O)N1` (stereo partly drawn) [Example 267, 3-(5-((S)-2-(((1R,5S,6R)-6-(((S)-2-(2-hydroxyphenyl)-5,6,6a,7,9,10-hexahydro-8H-pyrazino[1′,2′:4,5]pyrazino[2,3-c]pyridazin-8-yl)methyl)-3-azabicyclo[3.1.0]hexan-3-yl)methyl)morpholino)-1-oxoisoindolin-2-yl)piperidine-2,6-dione], for which, in test [1], the DC50 was < 10 nM and the Dmax was > 85%. Moreover, in test [2], the DC50 was < 10 nM and the Dmax was 75 to 85%.

For `O=C1CCC(N2Cc3cc(N4CCO[C@H](CN5C[C@@H]6[C@H](C5)[C@H]6CN5CCN6c7cc(-c8ccccc8O)nnc7NC[C@H]6C5)C4)ccc3C2=O)C(=O)N1` (stereo partly drawn) [Example 268, 3-(5-((R)-2-(((1R,5S,6S)-6-(((S)-2-(2-hydroxyphenyl)-5,6,6a,7,9,10-hexahydro-8H-pyrazino[1′,2′:4,5]pyrazino[2,3-c]pyridazin-8-yl)methyl)-3-azabicyclo[3.1.0]hexan-3-yl)methyl)morpholino)-1-oxoisoindolin-2-yl)piperidine-2,6-dione], in test [1], the DC50 is < 10 nM and the Dmax lay within 75 to 85%. Besides, in test [2], the DC50 was < 10 nM and the greatest degradation seen (Dmax) was in the range of 50 to 75%.

As for `CCC1CN(CC2CCN(c3ccc4c(c3)C(=O)N(C3CCC(=O)NC3=O)C4=O)CC2)CCN1C(=O)N1CCN2c3cc(-c4ccccc4O)nnc3NC[C@H]2C1` (stereo partly drawn) [Example 269, 2-(2,6-dioxopiperidin-3-yl)-5-(4-((3-ethyl-4-((S)-2-(2-hydroxyphenyl)-6,6a,7,8,9,10-hexahydro-5H-pyrazino[1′,2′:4,5]pyrazino[2,3-c]pyridazine-8-carbonyl)piperazin-1-yl)methyl)piperidin-1-yl)isoindoline-1,3-dione], in test [1], the DC50 is < 10 nM and the Dmax fell in the range of 75 to 85%. Also, in test [2], the DC50 lay within 10 to 100 nM and the Dmax lay within 50 to 75%.

For the molecule `CCC1CN(CC2CCN(c3ccc4c(c3)C(=O)N(C3CCC(=O)NC3=O)C4)CC2)CCN1C(=O)N1CCN2c3cc(-c4ccccc4O)nnc3NC[C@H]2C1` (stereo partly drawn) [Example 270, 3-(6-(4-((3-ethyl-4-((S)-2-(2-hydroxyphenyl)-6,6a,7,8,9,10-hexahydro-5H-pyrazino[1′,2′:4,5]pyrazino[2,3-c]pyridazine-8-carbonyl)piperazin-1-yl)methyl)piperidin-1-yl)-1-oxoisoindolin-2-yl)piperidine-2,6-dione], in test [1], the DC50 is < 10 nM and the Dmax is > 85%. In test [2], the DC50 was < 10 nM and the Dmax was > 85%.

For the molecule `CCC1CN(CC2CCN(c3ccc4c(c3)C(=O)N(C3CCC(=O)NC3=O)C4)CC2)CCN1C(=O)N1CCN2c3cc(-c4ccccc4O)nnc3NC[C@H]2C1` (stereo partly drawn) [Example 271, 3-(6-(4-((3-ethyl-4-((S)-2-(2-hydroxyphenyl)-6,6a,7,8,9,10-hexahydro-5H-pyrazino[1′,2′:4,5]pyrazino[2,3-c]pyridazine-8-carbonyl)piperazin-1-yl)methyl)piperidin-1-yl)-1-oxoisoindolin-2-yl)piperidine-2,6-dione], the DC50 in test [1] and in test [2] was < 10 nM each time.

Regarding `CC1CN(CC2CCN(C(=O)N3CCN4c5cc(-c6ccccc6O)nnc5NC[C@H]4C3)CC2)CCN1c1ccc2c(c1)C(=O)N(C1CCC(=O)NC1=O)C2=O` (stereo partly drawn) [Example 272, 2-(2,6-dioxopiperidin-3-yl)-5-(4-((1-((S)-2-(2-hydroxyphenyl)-6,6a,7,8,9,10-hexahydro-5H-pyrazino[1′,2′:4,5]pyrazino[2,3-c]pyridazine-8-carbonyl)piperidin-4-yl)methyl)-2-methylpiperazin-1-yl)isoindoline-1,3-dione], in test [1], the DC50 was < 10 nM and the Dmax was > 85%. Besides, in test [2], the DC50 is 10 to 100 nM and the Dmax is 75 to 85%.

On to `CC1CN(CC2CCN(c3ccc4c(c3)C(=O)N(C3CCC(=O)NC3=O)C4=O)CC2)CC(C)N1C(=O)N1CCN2c3cc(-c4ccccc4O)nnc3NC[C@H]2C1` (stereo partly drawn) [Example 273, 2-(2,6-dioxopiperidin-3-yl)-5-(4-((4-((S)-2-(2-hydroxyphenyl)-6,6a,7,8,9,10-hexahydro-5H-pyrazino[1′,2′:4,5]pyrazino[2,3-c]pyridazine-8-carbonyl)-3,5-dimethylpiperazin-1-yl)methyl)piperidin-1-yl)isoindoline-1,3-dione], for which the DC50 in test [1] and in test [2] was < 10 nM throughout. Also, the Dmax in test [1] was > 85%; in test [2], 75 to 85%.

With `CC1CN(CC2CN(c3ccc4c(c3)C(=O)N(C3CCC(=O)NC3=O)C4=O)C2)CC(C)N1C(=O)N1CCN2c3cc(-c4ccccc4O)nnc3NC[C@H]2C1` (stereo partly drawn) [Example 274, 2-(2,6-dioxopiperidin-3-yl)-5-(3-((4-((S)-2-(2-hydroxyphenyl)-6,6a,7,8,9,10-hexahydro-5H-pyrazino[1 ′,2′:4,5]pyrazino[2,3-c]pyridazine-8-carbonyl)-3,5-dimethylpiperazin-1-yl)methyl)azetidin-1-yl)isoindoline-1,3-dione], in test [1], the DC50 is < 10 nM and the Dmax was > 85%. In test [2], the DC50 was < 10 nM and the Dmax fell in the range of 50 to 75%.
